From ChEMBL document CHEMBL1132850, “Design, synthesis and structure-activity relationship of a series of arginine aldehyde factor Xa inhibitors. Part 1: structures based on the (D)-Arg-Gly-Arg tripeptide sequence” (Bioorg Med Chem Lett, 2000)
Square brackets hold non-standard residues; d marks the D form. Peptide text beside a SMILES is read from it. * marks the point of attachment. ξ: configuration not given here. 1Nal = N[C@@H](Cc1cccc2ccccc12)C(=O)O; ξR = N=C(N)NCCCC(N)C(=O)O; Boc = CC(C)(C)OC(=O)*; ξP = O=C(O)C1CCCN1

Experiments:
Prothrombin = Prothrombin (Homo sapiens, UniProt P00734); assay: Inhibitory activity against coagulation factor II (thrombin).
[1] = Inhibitory activity against prothrombinase complex (IIase).
Coagulation factor X [2] = molecular target: Coagulation factor X (Homo sapiens, UniProt P00742); assay: Inhibitory activity against coagulation factor X.
[3] = molecular target: Thrombin and coagulation factor X (Homo sapiens) (UniProt P00734+P00742); assay: Ratio of factor Xa inhibitory activity to that of factor IIa inhibitory activity; type: protein assay
Coagulation factor X [4] = molecular target: Coagulation factor X (Bos taurus, UniProt P00743); assay: Second-order rate of substrate hydrolysis (kcat/Km) by bovine coagulation factor X
Coagulation factor X (Bos taurus, UniProt P00743), sequence (P00743 41-180 limits assumed): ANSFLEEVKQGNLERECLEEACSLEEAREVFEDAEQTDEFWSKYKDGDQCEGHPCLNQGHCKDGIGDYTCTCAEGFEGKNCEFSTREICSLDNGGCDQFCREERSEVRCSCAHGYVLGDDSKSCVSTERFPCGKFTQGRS
Coagulation factor X (Bos taurus, UniProt P00743), sequence (P00743 234-492 limits assumed): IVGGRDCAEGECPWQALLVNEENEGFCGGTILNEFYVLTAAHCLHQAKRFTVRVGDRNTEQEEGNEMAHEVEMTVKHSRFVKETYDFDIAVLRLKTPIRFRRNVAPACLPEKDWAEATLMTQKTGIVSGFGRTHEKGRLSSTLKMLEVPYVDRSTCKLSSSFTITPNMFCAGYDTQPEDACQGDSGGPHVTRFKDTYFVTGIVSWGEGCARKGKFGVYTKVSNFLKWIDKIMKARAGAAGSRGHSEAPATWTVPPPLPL

Coagulation factor X (Homo sapiens, UniProt P00742), sequence (P00742 41-179 limits assumed): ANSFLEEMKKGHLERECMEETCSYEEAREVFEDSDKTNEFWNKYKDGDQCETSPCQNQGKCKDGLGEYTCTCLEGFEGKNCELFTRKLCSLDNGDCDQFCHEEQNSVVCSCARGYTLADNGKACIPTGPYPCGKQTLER
Coagulation factor X (Homo sapiens, UniProt P00742), sequence (P00742 235-488 limits assumed): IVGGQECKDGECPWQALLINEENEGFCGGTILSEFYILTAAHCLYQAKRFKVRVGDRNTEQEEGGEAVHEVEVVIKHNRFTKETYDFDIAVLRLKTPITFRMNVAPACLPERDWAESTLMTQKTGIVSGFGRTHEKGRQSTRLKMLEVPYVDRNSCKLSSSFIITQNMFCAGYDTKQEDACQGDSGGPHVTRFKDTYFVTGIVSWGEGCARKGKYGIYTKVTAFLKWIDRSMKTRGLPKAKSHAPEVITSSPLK
Thrombin and coagulation factor X (Homo sapiens), sequence (P00742 whole entry, looked up, other chains not shown): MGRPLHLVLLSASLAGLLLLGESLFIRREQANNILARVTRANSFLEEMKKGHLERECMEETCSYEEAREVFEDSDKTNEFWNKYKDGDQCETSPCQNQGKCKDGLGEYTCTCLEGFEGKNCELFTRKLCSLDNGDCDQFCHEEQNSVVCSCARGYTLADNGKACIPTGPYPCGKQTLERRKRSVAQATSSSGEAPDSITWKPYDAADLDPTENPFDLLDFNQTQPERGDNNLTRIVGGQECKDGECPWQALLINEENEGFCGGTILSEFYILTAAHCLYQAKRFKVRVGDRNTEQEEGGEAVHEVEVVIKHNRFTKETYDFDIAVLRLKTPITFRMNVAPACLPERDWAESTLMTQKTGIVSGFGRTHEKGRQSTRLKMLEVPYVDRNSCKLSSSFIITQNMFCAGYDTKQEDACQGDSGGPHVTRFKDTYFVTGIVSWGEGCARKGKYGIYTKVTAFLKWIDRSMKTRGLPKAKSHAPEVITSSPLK

Row | IC50 (Prothrombin) | IC50 [1] | IC50 (Coagulation factor X [2]) | Ratio [3] | Compound | kcat/Km (Coagulation factor X [4])
1 | > 500 µM | – | – | – | CC(C)(C)OC(=O)NC(CCCN=C(N)N)C(=O)NC(C)(C)C(=O)N[C@H](C=O)CCCN=C(N)N (single isomer, unassigned) | –
2 | – | 0.63 µM | – | – | N=C(N)NCCCC(NC(=O)C(=O)O)C(=O)NCC(=O)N[C@H](C=O)CCCNC(=N)N (single isomer, unassigned) | –
3 | 39 µM | 0.02 µM | 0.027 µM | 1500 | N=C(N)NCCCC(C=O)NC(=O)CNC(=O)[C@H](CCCNC(=N)N)NS(=O)(=O)CCc1cccc2ccccc12 (some centres undefined) | –
4 | 88 µM | 10 µM | 1 µM | 88 | CC(=N)NCCCC(NC(=O)OC(C)(C)C)C(=O)NCC(=O)N[C@H](C=O)CCCN=C(N)N (single isomer, unassigned) | –
5 | > 500 µM | 65 µM | 12 µM | 42 | CC(C)(C)OC(=O)NC(CCCN)C(=O)NCC(=O)N[C@H](C=O)CCCN=C(N)N (single isomer, unassigned) | –
6 | – | 0.038 µM | – | 2300 | N=C(N)NCCCC(C=O)NC(=O)CNC(=O)[C@H](CCCN=C(N)N)NS(=O)(=O)CCc1ccccc1 (some centres undefined) | –
7 | > 500 µM | – | – | – | CC(C)(C)OC(=O)N[C@@H](CCCNC(=N)N)C(=O)NCCC(=O)NC(C=O)CCCNC(=N)N (some centres undefined) | –
8 | > 100 µM | – | 0.1 µM | – | N=C(N)NCCCC(NC(=O)CC(=O)O)C(=O)NCC(=O)N[C@H](C=O)CCCNC(=N)N (single isomer, unassigned) | –
9 | 64 µM | – | 0.028 µM | – | N=C(N)NCCCC(C=O)NC(=O)CNC(=O)[C@H](CCCNC(=N)N)NS(=O)(=O)CCc1ccccc1 (some centres undefined) | –
10 | – | 0.058 µM | – | 100 | CN(CC(=O)NC(C=O)CCCN=C(N)N)C(=O)[C@H](CCCN=C(N)N)NS(=O)(=O)Cc1ccccc1 (some centres undefined) | –
11 | > 100 µM | – | 0.03 µM | – | CCOC(=O)NC(CCCN=C(N)N)C(=O)NCC(=O)N[C@H](C=O)CCCN=C(N)N (single isomer, unassigned) | –
12 | – | 2 µM | – | 375 | N=C(N)NCCCC(NC(=O)CCc1ccccc1)C(=O)NCC(=O)N[C@H](C=O)CCCNC(=N)N (single isomer, unassigned) | –
13 | 400 µM | 0.17 µM | – | 4000 | CC(C)(C)OC(=O)NC(CCCCN=C(N)N)C(=O)NCC(=O)N[C@H](C=O)CCCN=C(N)N (single isomer, unassigned) | –
14 | 50 µM | – | – | – | N=C(N)NCCCC(C=O)NC(=O)CNC(=O)[C@H](CCCNC(=N)N)NS(=O)(=O)Cc1ccccc1 (some centres undefined) | –
15 | – | – | – | – | N=C(N)NCCC[C@H](NC(=O)CNC(=O)[C@@H](CCCNC(=N)N)NC(=O)OCc1ccccc1)C(=O)Nc1ccc([N+](=O)[O-])cc1 (HELM PEPTIDE1{[O=C(OCc1ccccc1)[*:2]].[dR].G.R.[O=[N+]([O-])c1ccc(N[*:1])cc1]}$$$$V2.0) | 2.27e+06 M⁻¹ s⁻¹
16 | > 100 µM | – | – | – | CC(C)(C)OC(=O)NC(CCCNC(N)=O)C(=O)NCC(=O)N[C@H](C=O)CCCN=C(N)N (single isomer, unassigned) | –
17 | > 100 µM | – | – | – | N=C(N)NCCCC(NC(=O)CCC(=O)O)C(=O)NCC(=O)N[C@H](C=O)CCCNC(=N)N (single isomer, unassigned) | –
18 | 170 µM | 0.18 µM | 0.22 µM | 770 | N=C(N)NCCC[C@@H](C=O)NC(=O)CNC(=O)C(CCCN=C(N)N)NC(=O)NCc1ccccc1 (single isomer, unassigned) | –
19 | 55 µM | 0.828 µM | 0.19 µM | 290 | NC(N)=NCCCC(N)C(=O)NCC(=O)N[C@H](C=O)CCCN=C(N)N (single isomer, unassigned) | –
20 | – | 0.021 µM | – | 4 | CC(C)(C)OC(=O)N[C@@H](CCCN=C(N)N)C(=O)N1CCCC1C(=O)NC(C=O)CCCN=C(N)N (stereo partly drawn) (Boc-Arg-[ξP]-[ξR]-aldehyde) | –
21 | 2 µM | – | 0.02 µM | – | CN(CC(=O)NC(C=O)CCCNC(=N)N)C(=O)[C@H](CCCNC(=N)N)NS(=O)(=O)Cc1ccccc1 (some centres undefined) | –
22 | – | 12 µM | – | 30 | C/N=C(\N(C)C)N(C)CCCC[C@H](NC(=O)OC(C)(C)C)C(=O)NCC(=O)NC(C=O)CCCN=C(N)N (some centres undefined) | –
23 | > 100 µM | – | – | – | CC(C)(C)OC(=O)NC(CCCCN)C(=O)NCC(=O)N[C@H](C=O)CCCN=C(N)N (single isomer, unassigned) | –
24 | > 500 µM | 440 µM | 60 µM | 8 | CC(C)(C)OC(=O)N[C@@H](CCCN=C(N)N)C(=O)N1CCC[C@H]1C(=O)NC(C=O)CCCN=C(N)N (stereo partly drawn) (Boc-Arg-Pro-[ξR]-aldehyde) | –
25 | 42 µM | – | 0.14 µM | – | CC(C)(C)OC(=O)N[C@@H](CCCNC(=N)N)C(=O)N[C@@H](Cc1cccc2ccccc12)C(=O)NC(C=O)CCCNC(=N)N (stereo partly drawn) (Boc-Arg-[1Nal]-[ξR]-aldehyde) | –
26 | > 100 µM | – | 3 µM | – | C/N=C(\N(C)C)N(C)CCCC[C@H](NC(=O)OC(C)(C)C)C(=O)NCC(=O)NC(C=O)CCCNC(=N)N (some centres undefined) | –
27 | – | – | – | – | CC[C@H](C)[C@H](NC(=O)c1ccccc1)C(=O)N[C@@H](CCC(=O)O)C(=O)NCC(=O)N[C@@H](CCCN=C(N)N)C(=O)Nc1ccc([N+](=O)[O-])cc1 (HELM PEPTIDE1{[O=C(c1ccccc1)[*:2]].I.E.G.R.[O=[N+]([O-])c1ccc(N[*:1])cc1]}$$$$V2.0) | 350000 M⁻¹ s⁻¹
28 | > 100 µM | – | – | – | N=C(N)NCCCC(C=O)NC(=O)CNC(=O)[C@H](CCCNC(=N)N)NC(=O)COc1ccc2ccccc2c1 (some centres undefined) | –
29 | 0.2 µM | – | 0.046 µM | – | CC(C)(C)OC(=O)N[C@@H](CCCNC(=N)N)C(=O)N1CCCC1C(=O)NC(C=O)CCCNC(=N)N (stereo partly drawn) (Boc-Arg-[ξP]-[ξR]-aldehyde) | –
30 | – | 0.34 µM | – | 300 | CC(C)(C)OC(=O)N[C@@H](CCCN=C(N)N)C(=O)N[C@@H](Cc1cccc2ccccc12)C(=O)NC(C=O)CCCN=C(N)N (stereo partly drawn) (Boc-Arg-[1Nal]-[ξR]-aldehyde) | –

Row | Compound | IC50 (Prothrombin) | IC50 [1] | IC50 (Coagulation factor X [2]) | Ratio [3] | kcat/Km (Coagulation factor X [4])
31 | CC(C)(C)OC(=O)NC(CCCN=C(N)N)C(=O)NCC(=O)N[C@H](C=O)CCCN=C(N)N (single isomer, unassigned; 4) | – | – | 2 µM | – | –
